# Measurements as given in patent publication US10626095B2, “Cyanotriazole compounds” (OTSUKA PHARMACEUTICAL CO., LTD., priority 2013, dated 2020).
# Test system: NaCT-CHO (CHO cells stably expressing human NaCT)
# Test: Assay of the citric acid cycle activation ([1,5-14C]-citric acid, diffusion of [14C]-CO2)
# Assay type: cell-based
# Conditions: 1 hour incubation at 37° C. with [1,5-14C]-citric acid
# From the text: Assay of the Citric Acid Cycle Activation
# (1) Construction of the Human NaCT Expression Vector pME-NaCT
# The human NaCT (also called SLC13A5 or NAC2; GenBank accession No. NM_177550) cDNA was inserted into the EcoRI-NotI site of the mammalian expression vector pME18S (GenBank accession No. AB009864) and purified by Qiagen Plasmid Maxi Kit (Qiagen).
# (2) Establishment of NaCT Stably Expressed CHO Cells
# The pME-NaCT vector and the pcDNA™3.1 vector containing the neomycin resistance gene (Life Technologies) were co-transfected into CHO-K1 cells (ATCC) by Lipofectaimine 2000 reagent (Life Technologies). The next day the cells were subcultured in Nutrient Mixture F-12 Ham (Sigma-Aldrich) with 10% FBS (Biological Industries), and Geneticin (Life Technologies) was added (final concentration 350 μg/mL) in the following day. CHO cell clones stably expressing NaCT were given by neomycin resistant cell screening and limiting dilution method. Established cell lines (named NaCT-CHO) were also maintained in culture medium (Nutrient Mixture F-12 Ham) with 10% FBS and 350 μg/mL Geneticin. For control cells (named pME-CHO) preparation, the naive pME18S were also transfected instead of pME-NaCT into CHO-K1 cells.
# (3) Assay of the Citric Acid Cycle Activation
# NaCT-CHO and pME-CHO were plated at 20,000 cells/well into white CulturPlate™-96 (PerkinElmer) two days before the assay. Prior to assay incubation, the cultured plates were washed twice with washing buffer, 10 mM HEPES-Tris(pH7.4) containing 140 mM choline chloride, 2 mM KCl, 1 mM CaCl2, 1 mM MgCl2. The compounds to be tested were dissolved and diluted in DMSO (Wako Pure Chemical industries) to 1,000 times of a final concentration, and further diluted to two times as high as the final concentration in assay buffer, 10 mM HEPES-Tris(pH7.4) containing 140 mM NaCl, 2 mM KCl, 1 mM CaCl2, 1 mM MgCl2. The range of final concentrations was properly determined based on the test compounds activity. Each 25 μL compound solution was added to well and subsequently 25 μL radio-labeled substrate solution containing 0.4 mM (0.4 MBq/mL) [1,5-^14C]-citric acid (PerkinElmer) in the assay buffer was added. After 1 hour incubation at 37° C., the reaction mixture was discarded and washed three times with pre-chilled washing buffer and then 0.1 mL MicroScint 20 (PerkinElmer) was added to well. The plate was sealed with TopSeal-A (PerkinElmer) and the radioactivity was measured using a TopCount (PerkinElmer). Non-specific activity (NS cpm) and total radio activity (Total cpm) were determined by counting of pME-CHO plated wells and NaCT-CHO plated wells without compounds, respectively. Diffusion of [^14C]—CO2 was able to be estimated from residual radioactivity (R cpm) by an equation (Total−R)/(Total−NS)×100(%). The difference of Total and R was disappeared in the presence of 0.1 μM antimycin A. EC50 values were calculated by regression analysis using SAS Statistical Analysis System (SAS institute Japan Ltd. Release 9.1).
row,SMILES,EC50 [nM]
1,"N#Cc1[nH]nnc1-c1cc(Cl)cc(CC2CC2)c1 [Example 1, 5-(3-chloro-5-cyclopropylmethyl-phenyl)-3H-[1,2,3]triazole-4-carbonitrile]",500
2,"N#Cc1[nH]nnc1-c1cc(OCCCC(F)(F)F)cc(C(F)(F)F)c1 [Example 2, 5-[3-(4,4,4-trifluoro-butoxy)-5-trifluoromethyl-phenyl]-3H-[1,2,3]triazole-4-carbonitrile]",280
3,"N#Cc1[nH]nnc1-c1cccc(COCC2CCCCC2)c1 [Example 3, 5-(3-cyclohexylmethoxymethyl-phenyl)-3H-[1,2,3]triazole-4-carbonitrile]",260
4,"N#Cc1[nH]nnc1-c1cc(Cl)ccc1-c1cccc(C(F)(F)F)c1 [Example 4, 5-(4-chloro-3′-trifluoromethyl-biphenyl-2-yl)-3H-[1,2,3]triazole-4-carbonitrile]",240
5,"N#Cc1[nH]nnc1-c1ccccc1Cc1cc(C(F)(F)F)cc(C(F)(F)F)c1 [Example 5, 5-[2-(3,5-bis-trifluoromethyl-benzyl)-phenyl]-3H-[1,2,3]triazole-4-carbonitrile]",200
6,"N#Cc1[nH]nnc1-c1cc(C(F)(F)F)ccc1/C=C/c1ccccc1 [Example 6, 5-[2-((E)-styryl)-5-trifluoromethyl-phenyl]-3H-[1,2,3]triazole-4-carbonitrile]",400
7,"N#Cc1[nH]nnc1-c1cc(C(F)(F)F)ccc1CCc1ccccc1 [Example 7, 5-(2-phenethyl-5-trifluoromethyl-phenyl)-3H-[1,2,3]triazole-4-carbonitrile]",170
8,"N#Cc1[nH]nnc1-c1cc(Cl)ccc1/C=C/c1cccc(C(F)(F)F)c1 [Example 8, 5-{5-chloro-2-[(E)-2-(3-trifluoromethyl-phenyl)-vinyl]-phenyl}-3H-[1,2,3]triazole-4-carbonitrile]",290
9,"Cc1cc(F)cc(-c2nn[nH]c2C#N)c1OCc1cc(F)cc(C(F)(F)F)c1 [Example 9, 5-[5-fluoro-2-(3-fluoro-5-trifluoromethyl-benzyloxy)-3-methyl-phenyl]-3H-[1,2,3]triazole-4-carbonitrile]",230
10,"N#Cc1[nH]nnc1-c1cc(-c2ccsc2)cc(C(F)(F)F)c1 [Example 10, 5-(3-(thiophen-3-yl)-5-trifluoromethyl-phenyl)-3H-[1,2,3]triazole-4-carbonitrile]",70
11,"N#Cc1[nH]nnc1-c1cc(-c2ccc(C(F)(F)F)nc2)cc(C2CC2)c1 [Example 12, 5-[3-cyclopropyl-5-(6-trifluoromethyl-pyridin-3-yl)-phenyl]-3H-[1,2,3]triazole-4-carbonitrile]",690
12,"CC(C)(C)c1cc(-c2ccc(C(F)(F)F)cn2)cc(-c2nn[nH]c2C#N)c1 [Example 13, 5-[3-tert-butyl-5-(5-trifluoromethyl-pyridin-2-yl)-phenyl]-3H-[1,2,3]triazole-4-carbonitrile]",870
13,"CCOc1ccc(-c2ccc(C(F)(F)F)nc2)cc1-c1nn[nH]c1C#N [Example 16, 5-[2-ethoxy-5-(6-trifluoromethyl-pyridin-3-yl)-phenyl]-3H-[1,2,3]triazole-4-carbonitrile]",670
14,CC(C)Oc1ccc(-c2nn[nH]c2C#N)cc1-c1ccc(C(F)(F)F)nc1 [Example 17],520
15,"N#Cc1[nH]nnc1-c1cc(OCC2CC2)cc(-c2ccc(C(F)(F)F)cn2)c1 [Example 18, 5-[3-cyclopropylmethoxy-5-(5-trifluoromethyl-pyridin-2-yl)-phenyl]-3H-[0,1,2,3]triazole-4-carbonitrile]",570
16,"N#Cc1[nH]nnc1-c1cc(OC2CCC2)cc(-c2ccc(C(F)(F)F)nc2)c1 [Example 19, 5-[3-cyclobutoxy-5-(6-trifluoromethyl-pyridin-3-yl)-phenyl]-3H-[1,2,3]triazole-4-carbonitrile]",530

row,SMILES,EC50 [nM]
1,"N#Cc1[nH]nnc1-c1cc(OCc2cccc(C(F)(F)F)c2)cc(-c2ccc(C(F)(F)F)cn2)c1 [Example 20, 5-[3-(3-trifluoromethyl-benzyloxy)-5-(5-trifluoromethyl-pyridin-2-yl)-phenyl]-3H-[1,2,3]triazole-4-carbonitrile]",1620
2,"N#Cc1[nH]nnc1-c1cc(Cl)cc(N2CCC(C(F)(F)F)CC2)c1 [Example 24, 5-[3-chloro-5-(4-trifluoromethyl-piperidin-1-yl)-phenyl]-3H-[1,2,3]triazole-4-carbonitrile]",480
3,"N#Cc1[nH]nnc1-c1cc(Cl)cc(-c2csc3ccccc23)c1 [Example 25, 5-(3-(benzo[b]thiophen-3-yl)-5-chloro-phenyl)-3H-[1,2,3]triazole-4-carbonitrile]",540
4,"N#Cc1[nH]nnc1-c1ccc(F)c(-c2cc3ccccc3o2)c1 [Example 26, 5-(3-(benzofuran-2-yl)-4-fluoro-phenyl)-3H-[1,2,3]triazole-4-carbonitrile]",690
5,"N#Cc1[nH]nnc1-c1cccc(-c2nc3cc(F)ccc3o2)c1 [Example 27, 5-[3-(5-fluoro-benzoxazol-2-yl)-phenyl]-3H-[1,2,3]triazole-4-carbonitrile]",890
6,"N#Cc1[nH]nnc1-c1cc(F)cc(-c2cccc(C(F)(F)F)c2)c1 [Example 28, 5-(5-fluoro-3′-trifluoromethyl-biphenyl-3-yl)-3H-[1,2,3]triazole-4-carbonitrile]",370
7,"N#Cc1[nH]nnc1-c1cc(Cl)cc(-c2ccc3c(c2)OC(F)(F)O3)c1 [Example 30, 5-[3-chloro-5-(2,2-difluoro-benzo[1,3]dioxol-5-yl)-phenyl]-3H-[1,2,3]triazole-4-carbonitrile]",640
8,"Cc1cc(-c2cc(F)cc(C(F)(F)F)c2)cc(-c2nn[nH]c2C#N)c1 [Example 31, 5-(5′-fluoro-5-methyl-3′-trifluoromethyl-biphenyl-3-yl)-3H-[1,2,3]triazole-4-carbonitrile]",380
9,"COc1ccc(-c2nn[nH]c2C#N)cc1-c1ccc(F)c(F)c1 [Example 32, 5-(3′,4′-difluoro-6-methoxy-biphenyl-3-yl)-3H-[1,2,3]triazole-4-carbonitrile]",740
10,"CCOCc1cc(-c2ccc(F)cc2)cc(-c2nn[nH]c2C#N)c1 [Example 33, 5-(5-ethoxymethyl-4′-fluoro-biphenyl-3-yl)-3H-[1,2,3]triazole-4-carbonitrile]",270
11,"N#Cc1[nH]nnc1-c1cc(Cc2ccc(F)cc2)cc(OC(F)(F)F)c1 [Example 34, 5-[3-(4-fluoro-benzyl)-5-trifluoromethoxy-phenyl]-3H-[1,2,3]triazole-4-carbonitrile]",460
12,"N#Cc1[nH]nnc1-c1cc(Cl)cc(Cc2cc(C(F)(F)F)ccc2C(F)(F)F)c1 [Example 35, 5-[3-(2,5-bis-trifluoromethyl-benzyl)-5-chloro-phenyl]-3H-[1,2,3]triazole-4-carbonitrile]",340
13,"N#Cc1[nH]nnc1-c1cccc(CN2CCc3ccccc32)c1 [Example 36, 5-[3-(2,3-dihydro-indol-1-ylmethyl)-phenyl]-3H-[1,2,3]triazole-4-carbonitrile]",450
14,"N#Cc1[nH]nnc1-c1cc(Oc2ccccc2)cc(C(F)(F)F)c1 [Example 37, 5-(3-phenoxy-5-trifluoromethyl-phenyl)-3H-[1,2,3]triazole-4-carbonitrile]",120
15,"N#Cc1[nH]nnc1-c1cccc(Sc2ccc(Cl)cc2)c1 [Example 38, 5-[3-(4-chloro-phenylsulfanyl)-phenyl]-3H-[1,2,3]triazole-4-carbonitrile]",420
